{
  "source": "patent US20030074682A1",
  "about": "“Isolation, characterization, and use of a novel teleost potassium channel” (priority 2001, published 2003)",
  "key": {"zebrafish larvae": {"tested_on": "zebrafish larvae", "settings": "for \"real\" arrhythmia (atrium and ventricle beating very irregularly): bathing 6 hours; for induction of 2:1 atrioventricular block (atrium beats twice while the ventricle beats once): wild-type larvae bathed in drug, terfenadine 10 μM, astemizol 1 μM, diphenhydramine 100 μM, haloperidol 2 μM, droperidol 50 μM, thioridazin 10 μM, pimozide 0.5 μM, cisapride 5 μM; for arrest of the atrial and ventricular beat: 1 hour incubation", "procedure": "About 50 zebrafish larvae were incubated for 2-7 d at 22-28° C. in petri dishes filled with 30 ml embryo medium.\nAt the day of the experiment 10 larvae were transferred to small petri dishes filled with 10 ml embryo medium, 0.5 ml MESAB solution (0.2% ethyl-m-aminobenzoate methane-sulfonate+1% Na2HPO4×2H2O, pH 7.2) and 10 μl of the respective drug (or +10 μl of a second drug) added from a 1000-fold stock solution prepared with DMSO, these three components were previously mixed in 50 ml plastic tubes (controls only receive 10 or 20 μl DMSO).\nAt certain time points the contractility of the heart and blood flow was monitored, and the heart rate was determined by counting the heart beat with the aid of a stereo-microscope.\nIn order to evaluate if zebrafish is a suitable model organism to study drug-induced QT-prolongation we investigated the effect of known QT-prolonging medicaments on the heart beat rate of zebrafish larvae. Compounds were added to the media in which the larvae were bathed and the heart beat rate was recorded by microscopy."}, "[1]": {"target": "rapidly activating delayed rectifier current K^+ current IKr (Homo sapiens, UniProt Q12809)", "sequence (Q12809 whole entry)": "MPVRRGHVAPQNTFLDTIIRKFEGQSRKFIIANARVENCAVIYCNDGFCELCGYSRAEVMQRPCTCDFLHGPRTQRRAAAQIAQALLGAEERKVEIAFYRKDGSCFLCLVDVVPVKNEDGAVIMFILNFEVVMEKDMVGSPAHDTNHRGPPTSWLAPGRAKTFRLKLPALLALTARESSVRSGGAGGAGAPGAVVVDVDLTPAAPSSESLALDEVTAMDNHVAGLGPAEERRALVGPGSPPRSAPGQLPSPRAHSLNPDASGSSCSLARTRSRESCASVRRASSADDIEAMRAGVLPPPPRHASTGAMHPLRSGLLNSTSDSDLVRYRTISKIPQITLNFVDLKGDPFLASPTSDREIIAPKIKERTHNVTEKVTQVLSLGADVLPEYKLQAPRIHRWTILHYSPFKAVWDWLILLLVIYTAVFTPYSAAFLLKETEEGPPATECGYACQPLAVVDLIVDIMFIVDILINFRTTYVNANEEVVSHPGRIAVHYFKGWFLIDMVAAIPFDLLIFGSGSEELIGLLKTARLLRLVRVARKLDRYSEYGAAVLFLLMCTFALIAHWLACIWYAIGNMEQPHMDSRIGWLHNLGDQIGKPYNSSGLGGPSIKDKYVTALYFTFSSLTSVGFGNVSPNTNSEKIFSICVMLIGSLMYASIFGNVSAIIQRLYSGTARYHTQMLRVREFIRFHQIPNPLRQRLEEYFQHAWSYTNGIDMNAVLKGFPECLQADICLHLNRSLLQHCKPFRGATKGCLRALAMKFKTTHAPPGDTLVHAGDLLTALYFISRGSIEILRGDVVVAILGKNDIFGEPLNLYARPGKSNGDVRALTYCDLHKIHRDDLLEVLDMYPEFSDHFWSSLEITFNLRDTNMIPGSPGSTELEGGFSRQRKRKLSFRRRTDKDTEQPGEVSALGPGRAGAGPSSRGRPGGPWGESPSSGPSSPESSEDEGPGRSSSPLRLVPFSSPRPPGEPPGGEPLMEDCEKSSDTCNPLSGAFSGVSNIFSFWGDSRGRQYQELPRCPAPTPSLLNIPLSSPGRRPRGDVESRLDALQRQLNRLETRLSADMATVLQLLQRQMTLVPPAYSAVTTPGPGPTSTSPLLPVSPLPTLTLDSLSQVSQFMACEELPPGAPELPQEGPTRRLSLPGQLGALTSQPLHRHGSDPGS", "settings": "cited from earlier work"}, "ZERG": {"tested_on": "ZERG", "experiment": "Antisense ZERG-knockdown: PMO injected into yolk of zebrafish embryos at the 1-4-cell stage, heart function and morphology scored", "type": "in vivo", "source_text": "In one embodiment, preferred PMOs comprise a sequence complementary to contiguous nucleotides within nucleotides 1-150 of SEQ ID NO:1; an exemplary PMO sequence is presented in SEQ ID NO:3. As further detailed in the Examples, we generated an antisense PMO corresponding to the first 24 nucleotides of the ZERG coding sequence, as presented in SEQ ID NO:3, and injected these into the yolk of zebrafish embryos at the 1-4 cell stage, according to standard protocols. […] Thus, antisense PMOs may be used to knockdown the ZERG protein, and to phenocopy the breakdance mutant, as well as QT-prolonging drug-treated larvae.\n24-mer antisense PMOs targeting the 5′ prime region of ZERG (SEQ ID NO:3; start 0-24: GACATGTCCGCGGCGCACGGGCAT) were injected at the 1-4-cell stage into the yolk of zebrafish embryos according to published methods (Nasevicius and Ekker, 2000). The PMO was obtained from AVI Biopharma (Corvallis, Oreg.) and was injected at 3, 6 and 9 ng per embryo, we used 50 embroys per concentration. The experiment was repeated five times. Heart function and morphological anaylsis of larvae were scored one to 5 d later. Controls included the injection of only the injection buffer."}, "[2]": {"settings": "cardiac myocytes, electrophysiology"}, "[3]": {"settings": "6 ng PMO per embryo, 2 days post-fertilization"}},
  "note": "Read-outs that look alike come from different tables or passages of the source.",
  "data": [
    {"molecule": "COc1ccc(CCN2CCC(Nc3nc4ccccc4n3Cc3ccc(F)cc3)CC2)cc1", "note": "[astemizole]", "values": [
      {"measurement": "incubation time until 2:1 heart beat occurred", "setting": "zebrafish larvae; 100 nM", "result": 6, "unit": "h"},
      {"measurement": "\"real\" arrhythmia (atrium and ventricle beating very irregularly)", "setting": "zebrafish larvae; 200 nM", "result": "arrhythmia occurred"},
      {"measurement": "induction of 2:1 atrioventricular block (atrium beats twice while the ventricle beats once)", "setting": "zebrafish larvae", "result": "induced a 2:1 atrioventricular block"}
    ]},
    {"molecule": "COc1cc(N)c(Cl)cc1C(=O)NC1CCN(CCCOc2ccc(F)cc2)CC1OC", "note": "(stereo not shown) [cisapride]", "values": [
      {"measurement": "\"real\" arrhythmia (atrium and ventricle beating very irregularly)", "setting": "zebrafish larvae; 10 μM", "result": "arrhythmia occurred"},
      {"measurement": "arrest of the atrial and ventricular beat", "setting": "zebrafish larvae; 25 μM", "result": "arrest of the atrial and ventricular beat"},
      {"measurement": "induction of 2:1 atrioventricular block (atrium beats twice while the ventricle beats once)", "setting": "zebrafish larvae", "result": "induced a 2:1 atrioventricular block"},
      {"measurement": "block of IKr", "setting": "[1]; [2]", "result": "block"}
    ]},
    {"molecule": "CN(C)CCOC(c1ccccc1)c1ccccc1", "note": "[diphenhydramine]", "values": [
      {"measurement": "induction of 2:1 atrioventricular block (atrium beats twice while the ventricle beats once)", "setting": "zebrafish larvae", "result": "induced a 2:1 atrioventricular block"}
    ]},
    {"molecule": "O=C(CCCN1CC=C(n2c(=O)[nH]c3ccccc32)CC1)c1ccc(F)cc1", "note": "[droperidol]", "values": [
      {"measurement": "induction of 2:1 atrioventricular block (atrium beats twice while the ventricle beats once)", "setting": "zebrafish larvae", "result": "induced a 2:1 atrioventricular block"}
    ]},
    {"molecule": "NC1=NCC2c3ccccc3Cc3ccccc3N12", "note": "(stereo not shown) [epinastine]", "values": [
      {"measurement": "effect on heart beat rate", "setting": "zebrafish larvae; up to 250 μM", "result": "did not affect heart beat rate"}
    ]},
    {"molecule": "O=C(CCCN1CCC(O)(c2ccc(Cl)cc2)CC1)c1ccc(F)cc1", "note": "[haloperidol]", "values": [
      {"measurement": "\"real\" arrhythmia (atrium and ventricle beating very irregularly)", "setting": "zebrafish larvae; 10 μM", "result": "arrhythmia occurred"},
      {"measurement": "induction of 2:1 atrioventricular block (atrium beats twice while the ventricle beats once)", "setting": "zebrafish larvae", "result": "induced a 2:1 atrioventricular block"},
      {"measurement": "block of IKr", "setting": "[1]", "result": "block"}
    ]},
    {"molecule": "O=c1[nH]c2ccccc2n1C1CCN(CCCC(c2ccc(F)cc2)c2ccc(F)cc2)CC1", "note": "[pimozide]", "values": [
      {"measurement": "incubation time until 2:1 heart beat occurred", "setting": "zebrafish larvae; 200 nM", "result": 3, "unit": "h"},
      {"measurement": "arrest of the atrial and ventricular beat", "setting": "zebrafish larvae; 10 μM", "result": "arrest of the atrial and ventricular beat"},
      {"measurement": "induction of 2:1 atrioventricular block (atrium beats twice while the ventricle beats once)", "setting": "zebrafish larvae", "result": "induced a 2:1 atrioventricular block"},
      {"measurement": "block of IKr", "setting": "[1]", "result": "block"}
    ]},
    {"molecule": "CC(C)NCC(O)c1ccc(NS(C)(=O)=O)cc1", "note": "(stereo not shown) [sotalol]", "values": [
      {"measurement": "block of IKr", "setting": "[1]; [2]", "result": "block"}
    ]},
    {"molecule": "CC(C)(C)c1ccc(C(O)CCCN2CCC(C(O)(c3ccccc3)c3ccccc3)CC2)cc1", "note": "(stereo not shown) [terfenadine]", "values": [
      {"measurement": "induction of 2:1 atrioventricular block (atrium beats twice while the ventricle beats once)", "setting": "zebrafish larvae", "result": "induced a 2:1 atrioventricular block"}
    ]},
    {"molecule": "CSc1ccc2c(c1)N(CCC1CCCCN1C)c1ccccc1S2", "note": "(stereo not shown) [thioridazine]", "values": [
      {"measurement": "\"real\" arrhythmia (atrium and ventricle beating very irregularly)", "setting": "zebrafish larvae; 10 μM", "result": "arrhythmia occurred"},
      {"measurement": "induction of 2:1 atrioventricular block (atrium beats twice while the ventricle beats once)", "setting": "zebrafish larvae", "result": "induced a 2:1 atrioventricular block"}
    ]},
    {"molecule": "PMO: 24-mer antisense PMO targeting the 5′ region of ZERG (SEQ ID NO:3): GACATGTCCGCGGCGCACGGGCAT (antisense GACATGTCCGCGGCGCACGGGCAT; all phosphorodiamidate morpholino (PMO))", "values": [
      {"measurement": "larvae appearing wild-type", "setting": "ZERG; 3 ng PMO per embryo", "result": "approximately 5%"},
      {"measurement": "larvae showing a slight bradycardia", "setting": "ZERG; 3 ng PMO per embryo", "result": "approximately 81%"},
      {"measurement": "larvae showing the 2:1 phenotype", "setting": "ZERG; 3 ng PMO per embryo", "result": "approximately 18%"},
      {"measurement": "bradycardia and other visible abnormalities", "setting": "ZERG; 6 ng PMO per embryo", "result": "All larvae showed a slight bradycardia and no other visible abnormalities"},
      {"measurement": "embryos showing irregular arrhythmia, atrial beat rate strongly reduced and uncoordinated", "setting": "ZERG; [3]", "result": 28, "unit": "%"},
      {"measurement": "embryos showing the 2:1 heart beat", "setting": "ZERG; [3]", "result": 67, "unit": "%"},
      {"measurement": "larvae with a 2:1 heart beat", "setting": "ZERG; 6 ng PMO per embryo, day 3", "result": 10, "unit": "%"},
      {"measurement": "phenotype compared with wildtype", "setting": "ZERG; 6 ng PMO per embryo, day 5", "result": "all larvae were indistinguishable from wildtype larvae"},
      {"measurement": "day of death after strong necrosis beginning with day 4", "setting": "ZERG; 9 ng PMO per embryo", "result": "~6", "unit": "days"},
      {"measurement": "heart morphology", "setting": "ZERG; 9 ng PMO per embryo", "result": "changed to a pattern known for dilative cardiomyopathy"},
      {"measurement": "larvae with strongly reduced heart beat rate and contractility, both chambers beating 1:1, circulation strongly reduced or absent", "setting": "ZERG; 9 ng PMO per embryo", "result": 90, "unit": "%"},
      {"measurement": "edema and blood accumulation", "setting": "ZERG; 9 ng PMO per embryo, day 2", "result": "heart edema and blood accumulated on the yolk sac"},
      {"measurement": "PMO-injected larvae displaying the 2:1 phenotype", "setting": "ZERG; injected into yolk at the 1-4 cell stage, dose not given", "result": "About 90%"}
    ]}
  ]
}
